According to patent US20230338380A1, “Stable Immediate Release Tablet and Capsule Formulations of 1-((2S,5R)-5-((7H-Pyrrolo[2,3-D]Pyrimidin-4-YL)Amino)-2-Methylpiperidin-1-YL)Prop-2-EN-1-One” (Pfizer R&D UK Limited, priority 2019, published 2023):

Assay: Dynamic vapor sorption (DVS) of filler excipients
Format: physicochemical
Details: excipient alone; humidity of 90% RH
Excerpt: Also noted were the stability results for experimental formulation E, blended with lactose anhydrous. […] Lactose anhydrous was used in blend E rather than lactose monohydrate due to concerns regarding the impact of water upon the degradation of PF-06651600-15. To further explore the hygroscopic properties of lactose monohydrate, dynamic vapor sorption (DVS) traces were generated for both lactose anhydrous and lactose monohydrate (FIG. 24). The results for both were similar as the mass increased less than 2% at a humidity of 90% RH.

## OC[C@H]1O[C@@H](O[C@H]2[C@H](O)[C@@H](O)C(O)O[C@@H]2CO)[C@H](O)[C@@H](O)[C@H]1O (stereo partly shown) [lactose anhydrous]
  Mass increase (DVS): ~1.1%
